Assay results as given in BigSolDB 2.1.

CSCC[C@H](NC(=O)OCC1c2ccccc2-c2ccccc21)C(=O)O
solubility (mole fraction)
Conditions	283.15 K	288.15 K	293.15 K	298.15 K	303.15 K	308.15 K	313.15 K	318.15 K	323.15 K
in 2-butanone	0.0269	0.0314	0.0336	0.0406	0.0454	0.0513	0.0621	0.0695	0.0818
in acetone	0.0457	0.0475	0.0553	0.0614	0.0722	0.0806	0.0892	0.0961	0.11
in acetonitrile	0.00368	0.00465	0.00571	0.00724	0.00847	0.00974	0.0111	0.0127	0.0155
in isobutanol	0.00438	0.00573	0.00736	0.0102	0.0136	0.0165	0.023	0.032	0.0402
in isopentanol	0.00409	0.00489	0.00573	0.00778	0.00996	0.0126	0.0154	0.02	0.0248
in isopropanol	0.00635	0.00765	0.00792	0.00932	0.0142	0.0213	0.0326	0.0474	0.0669
in n-butanol	0.0142	0.0178	0.0204	0.0237	0.0295	0.0339	0.0394	0.0478	0.0542
in n-butyl acetate	0.0129	0.015	0.0173	0.0203	0.0242	0.028	0.0347	0.0426	0.0532
in n-pentanol	0.00977	0.0117	0.0149	0.019	0.0272	0.033	0.0399	0.0514	0.0667
in n-propanol	0.0101	0.0141	0.0172	0.0231	0.0271	0.0324	0.0407	0.0496	0.0542
in n-propyl acetate	0.0155	0.0181	0.021	0.0252	0.0295	0.0361	0.0399	0.043	0.0456
in sec-butanol	0.00898	0.0109	0.0152	0.0223	0.0311	0.0438	0.0506	0.0612	0.0868
